According to patent US9944602B2, “Piperidinone herbicides” (E. I. DU PONT DE NEMOURS AND COMPANY, priority 2014, dated 2018):

How the values were obtained:
[1] = test system: sedge, umbrella (small-flower umbrella sedge, Cyperus difformis); assay: Test C flooded paddy test sedge, umbrella; type: in vivo; details: Table C, Flood, 1000 g ai/ha, scale 0 to 100
How it was run: (§1)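 Rice, small-flower umbrella sedge, ducksalad and barnyardgrass at the 2-leaf stage were flooded to 3 cm, and compound was applied into the paddy water. After 13 to 15 d in a greenhouse, plants were rated visually against controls on a 0 (no effect) to 100 (complete control) scale.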

[2] = test system: ducksalad (Heteranthera limosa); assay: Test C flooded paddy test ducksalad; type: in vivo; details: Table C, Flood, 1000 g ai/ha, scale 0 to 100
How it was run: as §1

[3] = test system: barnyardgrass (Echinochloa crus-galli); assay: Test C flooded paddy test barnyardgrass; type: in vivo; details: Table C, Flood, 1000 g ai/ha, scale 0 to 100
How it was run: as §1

[4] = test system: barnyardgrass (Echinochloa crus-galli); assay: Test A postemergence barnyardgrass; type: in vivo; details: Echinochloa crus-galli, post-emergence, 240 h, 0 to 100 scale, 0 is no effect, 100 is complete control, read-out: Plant response rating, Barnyardgrass
How it was run: (§2)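 Greenhouse pot test: chemicals formulated with surfactant in non-phytotoxic solvent, sprayed on soil at seeding (pre) or on 1–2 leaf seedlings of 2–10 cm (post). Rating ~10 d later, visual, 0 = no effect to 100 = complete control, relative to untreated controls.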

[5] = test system: foxtail, giant (giant foxtail, Setaria faberii); assay: Test A postemergence foxtail, giant; type: in vivo; details: Setaria faberi, post-emergence, 240 h, 0 to 100 scale, 0 is no effect, 100 is complete control, read-out: Plant response rating, Foxtail, Giant
How it was run: as §2

[6] = test system: barnyardgrass (Echinochloa crus-galli); assay: Test B flooded paddy test barnyardgrass; type: in vivo; details: Echinochloa crus-galli, Table B, Flood, 250 g ai/ha, scale 0 to 100, read-out: Plant response rating
How it was run: (§3)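 Plants at 2-leaf stage in pots flooded 3 cm above soil; compounds applied directly into paddy water, depth kept throughout.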

[7] = test system: barnyardgrass (Echinochloa crus-galli); assay: Test A preemergence barnyardgrass; type: in vivo; details: 0 to 100 scale
How it was run: as §2

[8] = test system: ducksalad (Heteranthera limosa); assay: Test B flooded paddy test ducksalad; type: in vivo; details: Heteranthera limosa, Table B, Flood, 250 g ai/ha, scale 0 to 100, read-out: Plant response rating
How it was run: as §3

[9] = test system: foxtail, giant (giant foxtail, Setaria faberii); assay: Test A preemergence foxtail, giant; type: in vivo; details: Setaria faberi, pre-emergence, 240 h, 0 to 100 scale, 0 no effect, 100 complete control, read-out: Foxtail, Giant plant response rating
How it was run: as §2

[10] = test system: corn (Zea mays); assay: Test A postemergence corn; type: in vivo; details: Zea mays, post-emergence, 240 h, 0 to 100 scale, 0 is no effect, 100 is complete control
How it was run: as §2

[11] = test system: sedge, umbrella (small-flower umbrella sedge, Cyperus difformis); assay: Test B flooded paddy test sedge, umbrella; type: in vivo; details: Cyperus difformis, Table B, Flood, 250 g ai/ha, scale 0 to 100, read-out: Plant response rating
How it was run: as §3

[12] = test system: rice (Oryza sativa); assay: Test B flooded paddy test rice; type: in vivo; details: Oryza sativa, Table B, Flood, 250 g ai/ha, scale 0 to 100, read-out: Plant response rating
How it was run: as §3

[13] = test system: pigweed (Amaranthus retroflexus); assay: Test A postemergence pigweed; type: in vivo; details: Amaranthus retroflexus, post-emergence, 240 h, 0 to 100 scale, 0 is no effect, 100 is complete control, read-out: Plant response rating, Pigweed
How it was run: as §2

[14] = test system: pigweed (Amaranthus retroflexus); assay: Test A preemergence pigweed; type: in vivo; details: Amaranthus retroflexus, pre-emergence, 240 h, 0 to 100 scale, 0 no effect, 100 complete control, read-out: Pigweed plant response rating
How it was run: as §2

[15] = test system: wheat (Triticum aestivum); assay: Test A postemergence wheat; type: in vivo; details: Triticum aestivum, post-emergence, 240 h, 0 to 100 scale, 0 is no effect, 100 is complete control, read-out: Plant response rating, Wheat
How it was run: as §2

[16] = test system: rice (Oryza sativa); assay: Test C flooded paddy test rice; type: in vivo; details: Table C, Flood, 1000 g ai/ha, scale 0 to 100
How it was run: as §1

Question: Which Plant response rating [1] does the source give for `O=C1NCCC(c2cccc(C(F)(F)F)c2)C1C(=O)Nc1ccccc1C(F)(F)F` (stereo not shown) [Compound 10, 2-oxo-N-[2-(trifluoromethyl)phenyl)-4-[3-(trifluoromethyl)phenyl]-3-piperidinecarboxamide] here?
Answer: The Plant response rating was 0.

Question: What about the Plant response rating [2] of the same compound?
Answer: Its Plant response rating is 85.

Question: And the Plant response rating [3]?
Answer: The Plant response rating was 65.

Question: What about the pest or weed control at 125 g/ha ([4]; 125 g ai/ha) of the same compound?
Answer: Its pest or weed control at 125 g/ha is 80%.

Question: And the pest or weed control at 500 g/ha ([4]; 500 g ai/ha)?
Answer: Its pest or weed control at 500 g/ha is 90%.

Question: What about the pest or weed control at 125 g/ha ([5]; 125 g ai/ha) of the same compound?
Answer: The pest or weed control at 125 g/ha was 40%.

Question: And the pest or weed control at 500 g/ha ([5]; 500 g ai/ha)?
Answer: Its pest or weed control at 500 g/ha is 70%.

Question: What about the pest or weed control at 250 g/ha [6] of the same compound?
Answer: The pest or weed control at 250 g/ha was 0%.

Question: What about the “Plant response rating, Barnyardgrass” value ([7]; 500 g ai/ha, 0 is no effect, 100 is complete control) of the same compound?
Answer: The value was 90.

Question: What about the pest or weed control at 125 g/ha ([7]; Echinochloa crus-galli, pre-emergence, 240 h, 125 g ai/ha, 0 no effect, 100 complete control, read-out: Barnyardgrass plant response rating) of the same compound?
Answer: The pest or weed control at 125 g/ha was 60%.

Question: What about the pest or weed control at 250 g/ha [8] of the same compound?
Answer: The pest or weed control at 250 g/ha was 40%.

Question: What about the pest or weed control at 125 g/ha ([9]; 125 g ai/ha) of the same compound?
Answer: Its pest or weed control at 125 g/ha is 90%.

Question: And the pest or weed control at 500 g/ha ([9]; 500 g ai/ha)?
Answer: The pest or weed control at 500 g/ha was 90%.

Question: And the Corn plant response rating (crop injury, 0 = no effect, 100 = complete kill) at 125 g/ha ([10]; 125 g ai/ha)?
Answer: The Corn plant response rating (crop injury, 0 = no effect, 100 = complete kill) at 125 g/ha was 0%.

Question: What about the Corn plant response rating (crop injury, 0 = no effect, 100 = complete kill) at 500 g/ha ([10]; 500 g ai/ha) of the same compound?
Answer: Its Corn plant response rating (crop injury, 0 = no effect, 100 = complete kill) at 500 g/ha is 0%.

Question: And the pest or weed control at 250 g/ha [11]?
Answer: The pest or weed control at 250 g/ha was 0%.

Question: What about the plant injury at 250 g/ha [12] of the same compound?
Answer: The plant injury at 250 g/ha was 10%.

Question: And the melting point?
Answer: Its melting point is 292 to 295 °C.

Question: And the pest or weed control at 125 g/ha ([13]; 125 g ai/ha)?
Answer: Its pest or weed control at 125 g/ha is 0%.

Question: What about the pest or weed control at 500 g/ha ([13]; 500 g ai/ha) of the same compound?
Answer: Its pest or weed control at 500 g/ha is 0%.

Question: What about the pest or weed control at 125 g/ha ([14]; 125 g ai/ha) of the same compound?
Answer: Its pest or weed control at 125 g/ha is 0%.

Question: What about the pest or weed control at 500 g/ha ([14]; 500 g ai/ha) of the same compound?
Answer: The pest or weed control at 500 g/ha was 0%.

Question: And the plant injury at 125 g/ha ([15]; 125 g ai/ha)?
Answer: Its plant injury at 125 g/ha is 0%.

Question: What about the plant injury at 500 g/ha ([15]; 500 g ai/ha) of the same compound?
Answer: The plant injury at 500 g/ha was 0%.

Question: And the Plant response rating [16]?
Answer: The Plant response rating was 10.
